In US4760136A, “Chartreusin derivatives and salts thereof” (Ishihara Sangyo Kaisha, Ltd., priority 1984, dated 1988):
Where a name gives a salt, the structure may show the parent alone.

How the values were obtained:
[1] = Acute toxicity, intravenous (once), ddY mice; format: in vivo; settings: mouse, in vivo, iv, formulated per Preparation Example
From the text: In Table 7 are shown acute toxicity values (LD50, mg/kg) in ddY mice in the case of intravenously administering (once) each of the compounds of this invention in the form of preparations shown in the Preparation Examples shown in Table 7.

[2] = system: P-388 leukemia cells; test: Antitumor activity: P-388 leukemia cells inoculated intraperitoneally, drug administered intravenously, BDF1 mice; format: in vivo; settings: BDF1 mice, P-388 i.p.; for response vs control in vivo at 20 mg/kg / response vs control in vivo at 40 mg/kg / response vs control in vivo at 80 mg/kg: Mus musculus, P388, iv, read-out: T/C (%) of MST; for response vs control in vivo at 80 mg/kg: dose f: 80 mg/kg × 3, i.v. on days 1, 5 and 9
Method: Into BDF1 mice were inoculated intraperitoneally P-388 leukemia cells at a rate of 1×10^6 cells/mouse, and each drug to be tested was administered intravenously on the first, fifth and ninth days after the inoculation. […] The drugs were as follows solutions prepared by adding physiological saline to each of compound Nos. 8, 9, 10, 11, 17, 34, 42, 59, 80 and 134; suspensions prepared by dispersing each of compound Nos. 41, 78, 98, 100, 130, 191, 212, 213, 215, 227 and 230 to 232 and a small amount of sodium carboxymethyl cellulose (Na.CMC) in physiological saline, […]

[3] = dose b: 20 mg/kg × 3, i.v. on days 1, 5 and 9
[4] = dose c: 40 mg/kg × 3, i.v. on days 1, 5 and 9

COC1C(O)C(C)OC(OC2C(Oc3cccc4c(OC(=O)C5CCCCC5NC(=O)C(F)(F)F)c5c(=O)oc6ccc(C)c7c(=O)oc(c34)c5c67)OC(C)C3OC(c4cccc(F)c4)OC32)C1O (single isomer, unassigned) [Compound No. 27, 6-O-(N-Trifluoroacetyl-2-Amino-Cyclohexanecarbonyl)-3',4'-O-(m-Fluorobenzylidene)-Chartreusin]
LD50 [1]: ≥ 30 mg/kg | response vs control in vivo at 20 mg/kg [2, 3]: 179%

COC1C(O)C(C)OC(OC2C(Oc3cccc4c(OC(=O)C5CCCCC5NC(=O)C(F)(F)F)c5c(=O)oc6ccc(C)c7c(=O)oc(c34)c5c67)OC(C)C3OC(c4ccccc4)OC32)C1O (single isomer, unassigned) [Compound No. 118, 6-O-(N-Trifluoroacetyl-2-Amino-Cyclohexanecarbonyl)-3',4'-O-Benzylidene-Chartreusin]
LD50 [1]: ≥ 40 mg/kg | T/C (%) of MST [2, 4]: 135%

COC1C(O)C(C)OC(OC2C(Oc3cccc4c(OC(=O)C(C)CN(C)C)c5c(=O)oc6ccc(C)c7c(=O)oc(c34)c5c67)OC(C)C3OC(c4ccccc4)OC32)C1O (stereo not drawn) [Compound No. 1, 6-O-(N,N-Dimethyl-β-Amino-Isobutyryl)-3',4'-O-Benzylidene-ChartreusinHydrochloride]
LD50 [1]: ≥ 40 mg/kg | response vs control in vivo at 20 mg/kg [2, 3]: 138% | response vs control in vivo at 40 mg/kg [2, 4]: 214%

COC1C(O)C(C)OC(OC2C(Oc3cccc4c(OC(=O)C(C)CNC(C)C)c5c(=O)oc6ccc(C)c7c(=O)oc(c34)c5c67)OC(C)C3OC(c4ccccc4)OC32)C1O (stereo not drawn) [Compound No. 2, 6-O-(N-Isopropyl-β-Amino-Isobutyryl)-3',4'-O-Benzylidene-Chartreusin Hydrochloride]
LD50 [1]: ≥ 40 mg/kg | response vs control in vivo at 20 mg/kg [2, 3]: 184% | response vs control in vivo at 40 mg/kg [2, 4]: 216%

COC1C(O)C(C)OC(OC2C(Oc3cccc4c(OC(=O)C(C)CNC(=O)CN)c5c(=O)oc6ccc(C)c7c(=O)oc(c34)c5c67)OC(C)C3OC(c4ccccc4)OC32)C1O (stereo not shown) [Compound No. 3]
LD50 [1]: ≥ 40 mg/kg | response vs control in vivo at 20 mg/kg [2, 3]: 150% | response vs control in vivo at 40 mg/kg [2, 4]: 192%

COC1C(O)C(C)OC(OC2C(Oc3cccc4c(OC(=O)C(C)CNC(=O)CN(C)C)c5c(=O)oc6ccc(C)c7c(=O)oc(c34)c5c67)OC(C)C3OC(c4ccccc4)OC32)C1O (stereo not shown) [Compound No. 4]
LD50 [1]: ≥ 40 mg/kg | response vs control in vivo at 20 mg/kg [2, 3]: 184% | response vs control in vivo at 40 mg/kg [2, 4]: 216%

COC1C(O)C(C)OC(OC2C(Oc3cccc4c(OC(=O)C(C)CN)c5c(=O)oc6ccc(C)c7c(=O)oc(c34)c5c67)OC(C)C3OC(c4ccccc4)OC32)C1O (stereo not drawn) [Compound No. 6, 6-O-(β-Amino-Isobutyryl)-3',4'-O-Benzylidene-Chartreusin Phosphate]
LD50 [1]: ≥ 40 mg/kg | response vs control in vivo at 20 mg/kg [2, 3]: 182% | response vs control in vivo at 40 mg/kg [2, 4]: 242%

CCN(CC)CCC(=O)Oc1c2cccc(OC3OC(C)C4OC(c5ccccc5)OC4C3OC3OC(C)C(O)C(OC)C3O)c2c2oc(=O)c3c(C)ccc4oc(=O)c1c2c43 (stereo not drawn) [Compound No. 8, 6-O-(N,N-Diethyl-β-Alanyl)-3',4'-O-Benzylidene-Chartreusin Hydrochloride]
LD50 [1]: ≥ 40 mg/kg | response vs control in vivo at 20 mg/kg [2, 3]: 186% | response vs control in vivo at 40 mg/kg [2, 4]: 220%

COC1C(O)C(C)OC(OC2C(Oc3cccc4c(OC(=O)CCN5CCCC5)c5c(=O)oc6ccc(C)c7c(=O)oc(c34)c5c67)OC(C)C3OC(c4ccccc4)OC32)C1O (stereo not shown) [Compound No. 9]
LD50 [1]: ≥ 40 mg/kg | response vs control in vivo at 20 mg/kg [2, 3]: 165% | response vs control in vivo at 40 mg/kg [2, 4]: 292%

COC1C(O)C(C)OC(OC2C(Oc3cccc4c(OC(=O)CNC(=O)CNC(=O)CN)c5c(=O)oc6ccc(C)c7c(=O)oc(c34)c5c67)OC(C)C3OC(c4ccccc4)OC32)C1O (stereo not shown) [Compound No. 11]
LD50 [1]: ≥ 40 mg/kg | response vs control in vivo at 20 mg/kg [2, 3]: 186%

COC1C(O)C(C)OC(OC2C(Oc3cccc4c(OC(=O)C(C)CNC(=O)C(F)(F)F)c5c(=O)oc6ccc(C)c7c(=O)oc(c34)c5c67)OC(C)C3OC(c4ccccc4)OC32)C1O (stereo not drawn) [Compound No. 12, 6-O-(N-Trifluoroacetyl-β-Amino-Isobutyryl)-3',4'-O-Benzylidene-Chartreusin]
LD50 [1]: ≥ 40 mg/kg | response vs control in vivo at 20 mg/kg [2, 3]: 203% | T/C (%) of MST [2, 4]: 241%

COC1C(O)C(C)OC(OC2C(Oc3cccc4c(OC(=O)C(C)CNC(=O)c5ccccc5)c5c(=O)oc6ccc(C)c7c(=O)oc(c34)c5c67)OC(C)C3OC(c4ccccc4)OC32)C1O (stereo not shown) [Compound No. 13]
LD50 [1]: ≥ 40 mg/kg | response vs control in vivo at 20 mg/kg [2, 3]: 186% | response vs control in vivo at 40 mg/kg [2, 4]: 262%

COC1C(O)C(C)OC(OC2C(Oc3cccc4c(OC(=O)C(C)CN)c5c(=O)oc6ccc(C)c7c(=O)oc(c34)c5c67)OC(C)C3OC(c4cccc(F)c4)OC32)C1O (stereo not shown) [Compound No. 14]
LD50 [1]: ≥ 30 mg/kg | response vs control in vivo at 20 mg/kg [2, 3]: 195%

CCN(CC)CCC(=O)Oc1c2cccc(OC3OC(C)C4OC(c5cccc(F)c5)OC4C3OC3OC(C)C(O)C(OC)C3O)c2c2oc(=O)c3c(C)ccc4oc(=O)c1c2c43 (stereo not drawn) [Compound No. 15, 6-O-(N,N-diethyl-β-alanyl)-3',4'-O-(m-fluorobenzylidene)-chartreusin hydrochloride]
LD50 [1]: ≥ 30 mg/kg | response vs control in vivo at 20 mg/kg [2, 3]: 189%

COC1C(O)C(C)OC(OC2C(Oc3cccc4c(OC(=O)CCN)c5c(=O)oc6ccc(C)c7c(=O)oc(c34)c5c67)OC(C)C3OC(c4cccc(F)c4)OC32)C1O (stereo not drawn) [Compound No. 16, 6-O-(β-alanyl)-3',4'-O-(m-fluorobenzylidene)-chartreusin phosphate]
LD50 [1]: ≥ 40 mg/kg | response vs control in vivo at 20 mg/kg [2, 3]: 164% | response vs control in vivo at 40 mg/kg [2, 4]: 242%

COC1C(O)C(C)OC(OC2C(Oc3cccc4c(OC(=O)CCN)c5c(=O)oc6ccc(C)c7c(=O)oc(c34)c5c67)OC(C)C3OC(c4ccccc4)OC32)C1O (stereo not shown) [Compound No. 18]
LD50 [1]: ≥ 40 mg/kg | T/C (%) of MST [2, 3]: 196% | T/C (%) of MST [2, 4]: 238%

COC1C(O)C(C)OC(OC2C(Oc3cccc4c(OC(=O)CCCCCN)c5c(=O)oc6ccc(C)c7c(=O)oc(c34)c5c67)OC(C)C3OC(c4ccccc4)OC32)C1O (stereo not shown) [Compound No. 19]
LD50 [1]: ≥ 40 mg/kg | response vs control in vivo at 20 mg/kg [2, 3]: 184% | response vs control in vivo at 40 mg/kg [2, 4]: 233%

COC1C(O)C(C)OC(OC2C(Oc3cccc4c(OC(=O)CCNC=O)c5c(=O)oc6ccc(C)c7c(=O)oc(c34)c5c67)OC(C)C3OC(c4ccccc4)OC32)C1O (stereo not shown) [Compound No. 20]
response vs control in vivo at 40 mg/kg [2, 4]: 248% | T/C (%) of MST [2, 3]: 203%

COC1C(O)C(C)OC(OC2C(Oc3cccc4c(OC(=O)CCNC(=O)C(F)(F)F)c5c(=O)oc6ccc(C)c7c(=O)oc(c34)c5c67)OC(C)C3OC(c4ccccc4)OC32)C1O (stereo not shown) [Compound No. 21]
response vs control in vivo at 20 mg/kg [2, 3]: 210% | T/C (%) of MST [2, 4]: 229%

COC1C(O)C(C)OC(OC2C(Oc3cccc4c(OC(=O)CCNC(=O)C(Cl)(Cl)Cl)c5c(=O)oc6ccc(C)c7c(=O)oc(c34)c5c67)OC(C)C3OC(c4ccccc4)OC32)C1O (stereo not shown) [Compound No. 22]
LD50 [1]: ≥ 40 mg/kg | response vs control in vivo at 20 mg/kg [2, 3]: 181%

COC1C(O)C(C)OC(OC2C(Oc3cccc4c(OC(=O)CCNC(=O)c5ccccc5)c5c(=O)oc6ccc(C)c7c(=O)oc(c34)c5c67)OC(C)C3OC(c4ccccc4)OC32)C1O (stereo not shown) [Compound No. 23]
LD50 [1]: ≥ 40 mg/kg | response vs control in vivo at 20 mg/kg [2, 3]: 205% | response vs control in vivo at 40 mg/kg [2, 4]: 233%

COC1C(O)C(C)OC(OC2C(Oc3cccc4c(OC(=O)CCCNC(=O)C(F)(F)F)c5c(=O)oc6ccc(C)c7c(=O)oc(c34)c5c67)OC(C)C3OC(c4ccccc4)OC32)C1O (stereo not shown) [Compound No. 24]
LD50 [1]: ≥ 40 mg/kg | response vs control in vivo at 20 mg/kg [2, 3]: 161% | response vs control in vivo at 40 mg/kg [2, 4]: 223%

COC1C(O)C(C)OC(OC2C(Oc3cccc4c(OC(=O)C(C)CNC(=O)C(F)(F)F)c5c(=O)oc6ccc(C)c7c(=O)oc(c34)c5c67)OC(C)C3OC(c4ccccc4)OC32)C1O (stereo not shown) [Compound No. 44]
response vs control in vivo at 80 mg/kg [2]: 217% | T/C (%) of MST [2, 4]: 164%

COC1C(O)C(C)OC(OC2C(Oc3cccc4c(OC(=O)CCNC=O)c5c(=O)oc6ccc(C)c7c(=O)oc(c34)c5c67)OC(C)C3OC(c4ccccc4)OC32)C1O (stereo not shown) [Compound No. 45]
response vs control in vivo at 40 mg/kg [2, 4]: 220% | T/C (%) of MST [2, 3]: 164%

COC1C(O)C(C)OC(OC2C(Oc3cccc4c(OC(=O)CCCOCc5ccccc5)c5c(=O)oc6ccc(C)c7c(=O)oc(c34)c5c67)OC(C)C3OC(c4ccccc4)OC32)C1O (stereo not shown) [Compound No. 165, 6-O-(4-benzyloxy-n-butyryl)-3',4'-O-Benzylidene-Chartreusin]
response vs control in vivo at 20 mg/kg [2, 3]: 189%

COC1C(O)C(C)OC(OC2C(Oc3cccc4c(OC(=O)CCNC(=O)OCc5ccccc5)c5c(=O)oc6ccc(C)c7c(=O)oc(c34)c5c67)OC(C)C3OC(c4ccccc4)OC32)C1O (stereo not shown) [compound 103]
response vs control in vivo at 40 mg/kg [2, 4]: 146% | response vs control in vivo at 80 mg/kg [2]: 203%

COC1C(O)C(C)OC(OC2C(Oc3cccc4c(OC(=O)CNC(=O)OCc5ccccc5)c5c(=O)oc6ccc(C)c7c(=O)oc(c34)c5c67)OC(C)C3OC(c4ccccc4)OC32)C1O (stereo not shown) [compound 104]
response vs control in vivo at 40 mg/kg [2, 4]: 137%

COC1C(O)C(C)OC(OC2C(Oc3cccc4c(OC(=O)c5cccc(Cl)c5)c5c(=O)oc6ccc(C)c7c(=O)oc(c34)c5c67)OC(C)C3OC(C)(C)OC32)C1O (stereo not shown) [compound 226]
response vs control in vivo at 40 mg/kg [2, 4]: 145%
